One data set deals with InsR (Homo sapiens, UniProt P06213). The data set can be described thus: In vitro kinase activity assay (HDB Kinase Selectivity Profiling). As to conditions: Kinase Glo Plus assay format. Type of data set: biochemical. (In general: Kinase-Glo reads ATP consumption through a luciferase reaction.)
Data set [1] has as its system HGF-induced vasculature formation. The data set can be described thus: Matrigel plug assay, HGF-induced angiogenesis in vivo. As to conditions: Matrigel plug with HGF (50 ng/ml) and Indo5 (10 μM, 20 μM), 7 days. Also on record: species or system BALB/c mice. How it is done:
After 7 days, mice were sacrificed and the Matrigel plugs were fixed in 10% buffered formaldehyde, which was embedded in paraffin, and sectioned. The sections were stained with hematoxylin and eosin(H&E). H&E staining was performed to identify the formation and infiltration of new, functional microvessles.

The next data set deals with c-Met signaling pathway. The data set can be described thus: HGF-induced c-Met signaling pathway activation in HepG2 cells (Western blot). As to conditions: HepG2, 0.5 μM Indo5, pretreated 2 h, HGF 20 ng/ml 5 min. On the technique in general: Immunoblotting shows a protein as a band on a membrane.
The subject of data set [2] is MHCC97H orthotopic tumors.
Description: For the orthotopic xenograft mouse model, MHCC97H cells were inoculated subcutaneously in the right flank of each SCID mouse. When the tumor volumes reached approximately 1 cm^3, the mice were sacrificed, and the tumors were isolated and cut into 1 mm^3 pieces. The mice were anesthetized by an intraperitoneal injection of 1% sodium pentobarbital solution. A 1-cm longitudinal skin incision was made on the right upper axillary region of the abdomen of the mouse, the peritoneum was opened and the liver was exposed. The liver was punctured by a needle, and a 1 mm^3 tumor piece was implanted. The liver was put back into the abdominal cavity gently, and the surgical opening was closed using a 5–0 surgical suture.
The tumor weights were measured (b). […] Tumor-bearing mice were sacrificed when they became moribund.
The target in the next data set is RET (Homo sapiens, UniProt P07949). The data set can be described thus: In vitro kinase activity assay (HDB Kinase Selectivity Profiling). It is filed as biochemical. As to conditions: Kinase Glo Plus assay format.
For the next data set, the target named is C-KIT (Homo sapiens, UniProt P10721). The data set can be described thus: In vitro kinase activity assay (Caliper assay format). Type of data set: biochemical.
Another data set has as its target IGF1R (Homo sapiens, UniProt P08069). The data set can be described thus: In vitro kinase activity assay (HDB Kinase Selectivity Profiling). As to conditions: Kinase Glo Plus assay format. Type of data set: biochemical.
The subject of data set [3] is orthotopic HepG2 cell xenografts. The data set can be described thus: Orthotopic HepG2 cell xenografts (liver orthotopic mouse model).
Another data set addresses AXL (Homo sapiens, UniProt P30530). The data set can be described thus: In vitro kinase activity assay (HDB Kinase Selectivity Profiling). It is filed as biochemical. As to conditions: Kinase Glo Plus assay format.
The next data set has as its target EGFR (Homo sapiens, UniProt P00533). Described as above. It is filed as biochemical. To be noted: Kinase Glo Plus assay format.
Another data set deals with Ba/F3-TrkB cells. The data set can be described thus: BDNF-induced growth of TrkB-transfected Ba/F3 cells. To be noted: BDNF 50 ng/ml 48 h, dose-dependent.
For the next data set, the target named is EGFR(T790,L858R) (Homo sapiens, UniProt P00533, L858R/T790M). The data set can be described thus: In vitro kinase activity assay (HDB Kinase Selectivity Profiling). It is filed as biochemical. As to conditions: Kinase Glo Plus assay format.
Data set [4] has as its system c-Met^loTrkB^hi and c-Met^loTrkB^lo cells. The data set can be described thus: Cell growth of cells expressing TrkB alone or both low. Type of data set: cell-based. To be noted: Homo sapiens, read-out: IC50 value, range over cell lines.
The test system of a further data set is wild-type Ba/F3 cells. The data set can be described thus: Proliferation of wild-type Ba/F3 cells.
Data set [5] deals with HepG2 cell line tumor xenografts. The data set can be described thus: TUNEL staining of HepG2 tumor xenografts. To be noted: HepG2 xenograft, Indo5-treated. Type of data set: in vivo, nude mice.
Data set [6] has as its system c-Met and TrkB coexpressing cell lines (c-Met^hiTrkB^hi). The data set can be described thus: Cell growth of c-Met and TrkB coexpressing cell lines. Type of data set: cell-based. To be noted: Homo sapiens, read-out: IC50 value, range over cell lines.
A further data set has as its system TrkB signaling. The data set can be described thus: BDNF-induced TrkB signaling in HepG2 cells (Western blot). It is filed as cell-based, human. As to conditions: HepG2, Indo5 pretreated 2 h, BDNF 50 ng/ml 5 min, dose-dependent.

Chain of AXL (P30530 26-894): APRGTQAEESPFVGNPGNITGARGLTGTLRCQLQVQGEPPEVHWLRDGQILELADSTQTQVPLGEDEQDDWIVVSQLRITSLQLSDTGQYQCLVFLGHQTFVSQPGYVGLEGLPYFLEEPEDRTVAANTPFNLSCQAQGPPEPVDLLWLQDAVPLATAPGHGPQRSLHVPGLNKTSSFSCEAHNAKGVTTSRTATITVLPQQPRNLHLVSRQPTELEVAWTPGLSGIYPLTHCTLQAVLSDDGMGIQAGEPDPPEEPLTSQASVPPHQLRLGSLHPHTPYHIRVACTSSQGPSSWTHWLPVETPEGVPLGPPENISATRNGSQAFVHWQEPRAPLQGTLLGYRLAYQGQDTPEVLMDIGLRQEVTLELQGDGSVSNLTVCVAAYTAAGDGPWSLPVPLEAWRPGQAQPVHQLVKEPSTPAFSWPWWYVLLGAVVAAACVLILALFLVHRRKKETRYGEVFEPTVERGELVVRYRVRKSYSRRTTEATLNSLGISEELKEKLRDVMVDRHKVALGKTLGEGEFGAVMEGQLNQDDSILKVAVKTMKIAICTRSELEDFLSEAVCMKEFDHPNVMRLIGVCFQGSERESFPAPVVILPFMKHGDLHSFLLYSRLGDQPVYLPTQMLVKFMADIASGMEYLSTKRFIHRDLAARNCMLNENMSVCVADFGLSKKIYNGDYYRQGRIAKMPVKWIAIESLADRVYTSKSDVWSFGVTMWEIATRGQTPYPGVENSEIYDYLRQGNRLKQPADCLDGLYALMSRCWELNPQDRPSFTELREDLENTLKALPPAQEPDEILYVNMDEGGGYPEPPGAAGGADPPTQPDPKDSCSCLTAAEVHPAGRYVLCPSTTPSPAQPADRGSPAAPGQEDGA
Chain of InsR (P06213 28-1382): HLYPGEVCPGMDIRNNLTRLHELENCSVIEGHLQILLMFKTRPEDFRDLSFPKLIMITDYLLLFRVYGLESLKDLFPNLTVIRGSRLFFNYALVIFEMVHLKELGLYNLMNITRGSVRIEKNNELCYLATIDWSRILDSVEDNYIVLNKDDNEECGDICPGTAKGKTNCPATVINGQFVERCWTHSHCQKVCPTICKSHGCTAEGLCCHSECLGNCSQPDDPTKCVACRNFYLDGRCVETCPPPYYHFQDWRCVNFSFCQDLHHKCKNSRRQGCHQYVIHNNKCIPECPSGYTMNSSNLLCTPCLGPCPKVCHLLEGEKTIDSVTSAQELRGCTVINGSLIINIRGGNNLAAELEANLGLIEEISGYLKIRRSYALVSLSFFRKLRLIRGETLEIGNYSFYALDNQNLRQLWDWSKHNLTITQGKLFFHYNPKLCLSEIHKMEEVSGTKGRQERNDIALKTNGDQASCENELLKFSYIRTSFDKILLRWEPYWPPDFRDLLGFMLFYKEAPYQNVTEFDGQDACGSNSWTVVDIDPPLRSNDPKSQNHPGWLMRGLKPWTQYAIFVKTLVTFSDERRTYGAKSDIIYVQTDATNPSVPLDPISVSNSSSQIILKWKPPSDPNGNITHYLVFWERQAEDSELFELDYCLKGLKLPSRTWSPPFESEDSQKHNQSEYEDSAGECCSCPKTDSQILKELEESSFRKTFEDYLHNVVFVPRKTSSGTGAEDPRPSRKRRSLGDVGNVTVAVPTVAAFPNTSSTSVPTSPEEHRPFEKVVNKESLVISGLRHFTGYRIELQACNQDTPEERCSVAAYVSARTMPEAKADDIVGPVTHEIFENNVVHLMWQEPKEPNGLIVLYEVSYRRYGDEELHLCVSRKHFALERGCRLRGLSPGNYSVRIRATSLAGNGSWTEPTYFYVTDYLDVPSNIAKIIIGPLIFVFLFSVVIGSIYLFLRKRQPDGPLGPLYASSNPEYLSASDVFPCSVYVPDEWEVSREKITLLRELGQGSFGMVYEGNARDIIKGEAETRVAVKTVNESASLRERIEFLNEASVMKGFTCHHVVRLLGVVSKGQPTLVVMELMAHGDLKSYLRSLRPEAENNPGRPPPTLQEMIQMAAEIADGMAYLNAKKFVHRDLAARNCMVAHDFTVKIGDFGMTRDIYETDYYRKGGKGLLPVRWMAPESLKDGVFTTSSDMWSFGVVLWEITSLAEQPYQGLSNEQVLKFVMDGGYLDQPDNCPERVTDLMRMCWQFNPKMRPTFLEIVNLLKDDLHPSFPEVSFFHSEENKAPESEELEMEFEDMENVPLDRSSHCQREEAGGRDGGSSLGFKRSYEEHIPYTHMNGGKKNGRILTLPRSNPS
Chain of EGFR(T790,L858R) (P00533 669-1210 T790M/L858R limits assumed): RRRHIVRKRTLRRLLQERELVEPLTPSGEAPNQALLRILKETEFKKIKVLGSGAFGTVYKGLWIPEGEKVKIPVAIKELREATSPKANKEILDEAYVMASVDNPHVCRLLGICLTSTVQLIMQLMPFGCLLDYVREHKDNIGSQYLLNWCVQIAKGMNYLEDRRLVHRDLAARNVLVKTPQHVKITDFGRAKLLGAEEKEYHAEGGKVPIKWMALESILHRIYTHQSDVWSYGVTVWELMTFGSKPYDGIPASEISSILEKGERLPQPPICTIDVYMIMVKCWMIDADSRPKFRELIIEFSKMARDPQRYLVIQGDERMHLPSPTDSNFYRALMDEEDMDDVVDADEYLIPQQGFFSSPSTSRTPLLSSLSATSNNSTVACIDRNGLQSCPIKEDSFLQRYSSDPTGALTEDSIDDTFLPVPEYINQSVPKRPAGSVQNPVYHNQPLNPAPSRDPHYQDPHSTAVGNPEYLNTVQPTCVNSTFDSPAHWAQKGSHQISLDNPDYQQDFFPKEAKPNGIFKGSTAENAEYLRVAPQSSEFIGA
Chain of EGFR (P00533 25-1210): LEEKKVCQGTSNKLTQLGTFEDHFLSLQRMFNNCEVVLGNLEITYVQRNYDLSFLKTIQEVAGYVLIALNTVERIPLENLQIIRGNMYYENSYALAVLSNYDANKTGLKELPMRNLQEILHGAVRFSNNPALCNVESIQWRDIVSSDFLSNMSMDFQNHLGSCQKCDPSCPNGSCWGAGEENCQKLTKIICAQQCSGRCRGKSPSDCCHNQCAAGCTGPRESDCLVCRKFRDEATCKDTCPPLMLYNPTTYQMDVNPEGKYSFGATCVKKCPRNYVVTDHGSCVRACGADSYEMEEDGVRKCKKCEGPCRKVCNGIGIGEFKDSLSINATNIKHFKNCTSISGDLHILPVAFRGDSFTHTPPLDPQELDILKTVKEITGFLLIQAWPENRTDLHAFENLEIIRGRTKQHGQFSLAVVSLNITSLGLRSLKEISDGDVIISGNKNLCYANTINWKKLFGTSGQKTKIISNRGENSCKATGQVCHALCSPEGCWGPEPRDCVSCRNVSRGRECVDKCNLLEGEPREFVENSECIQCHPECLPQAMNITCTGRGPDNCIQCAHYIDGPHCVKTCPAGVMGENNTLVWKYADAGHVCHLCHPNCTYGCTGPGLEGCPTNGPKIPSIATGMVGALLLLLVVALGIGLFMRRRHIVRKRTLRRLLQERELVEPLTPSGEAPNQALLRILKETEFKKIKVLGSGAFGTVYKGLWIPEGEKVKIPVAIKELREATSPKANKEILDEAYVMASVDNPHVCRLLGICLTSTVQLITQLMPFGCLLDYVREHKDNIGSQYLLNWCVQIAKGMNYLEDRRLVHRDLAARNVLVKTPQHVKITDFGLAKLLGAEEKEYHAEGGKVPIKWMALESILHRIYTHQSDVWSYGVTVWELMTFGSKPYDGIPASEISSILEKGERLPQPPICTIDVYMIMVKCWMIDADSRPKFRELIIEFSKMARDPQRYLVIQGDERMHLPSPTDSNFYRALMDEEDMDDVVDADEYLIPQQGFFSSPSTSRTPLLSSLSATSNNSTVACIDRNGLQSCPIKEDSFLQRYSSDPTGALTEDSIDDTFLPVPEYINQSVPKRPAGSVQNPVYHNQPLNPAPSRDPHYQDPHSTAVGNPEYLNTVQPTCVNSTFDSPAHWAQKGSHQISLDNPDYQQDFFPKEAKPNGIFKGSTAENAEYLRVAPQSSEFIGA
Chain of C-KIT (P10721 26-976): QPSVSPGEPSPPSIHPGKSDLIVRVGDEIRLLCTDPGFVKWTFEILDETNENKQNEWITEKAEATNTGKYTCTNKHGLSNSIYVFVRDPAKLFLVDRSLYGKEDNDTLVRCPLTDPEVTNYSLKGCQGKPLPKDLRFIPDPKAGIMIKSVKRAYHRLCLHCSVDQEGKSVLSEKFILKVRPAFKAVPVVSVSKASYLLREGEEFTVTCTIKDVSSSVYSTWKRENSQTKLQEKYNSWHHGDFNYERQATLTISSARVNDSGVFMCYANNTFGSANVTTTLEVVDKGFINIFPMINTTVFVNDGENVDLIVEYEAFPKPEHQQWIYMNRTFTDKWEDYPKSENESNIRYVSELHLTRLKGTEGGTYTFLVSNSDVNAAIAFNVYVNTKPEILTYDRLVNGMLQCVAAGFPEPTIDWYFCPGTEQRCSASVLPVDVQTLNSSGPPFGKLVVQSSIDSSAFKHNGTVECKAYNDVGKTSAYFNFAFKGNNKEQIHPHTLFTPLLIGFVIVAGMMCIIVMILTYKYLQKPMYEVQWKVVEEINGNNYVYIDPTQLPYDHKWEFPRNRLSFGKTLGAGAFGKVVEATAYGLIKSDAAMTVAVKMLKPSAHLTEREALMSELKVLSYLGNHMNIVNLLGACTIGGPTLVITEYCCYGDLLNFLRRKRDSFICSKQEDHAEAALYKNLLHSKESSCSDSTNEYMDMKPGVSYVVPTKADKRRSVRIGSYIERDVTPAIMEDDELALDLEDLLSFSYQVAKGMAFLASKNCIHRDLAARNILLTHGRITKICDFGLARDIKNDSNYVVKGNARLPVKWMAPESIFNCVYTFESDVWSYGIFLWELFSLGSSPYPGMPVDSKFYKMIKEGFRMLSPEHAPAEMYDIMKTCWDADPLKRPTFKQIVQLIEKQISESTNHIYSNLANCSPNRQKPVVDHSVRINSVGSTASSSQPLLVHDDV
Protocol for Ba/F3-TrkB cells: Cell proliferation was measured and the proliferation index was calculated. […] Data are shown as the mean ± S.D. and are representative of three independent experiments. ** p < 0.01, *** p < 0.001.
Protocol for TrkB signaling: Data are shown as the mean ± S.D. and are representative of three independent experiments. ** p < 0.01, *** p < 0.001.
(b) HepG2 cells were treated with BDNF (10 ng/ml) alone or BDNF (10 ng/ml) and HGF (10 ng/ml) for the indicated time and the activation of TrkB signaling pathway was examined. […] The activation of the TrkB and c-Met signaling pathways were examined. […] The activation of the TrkB and c-Met signaling pathways were examined. […] Data are shown as the mean ± S.D. and are representative of three independent experiments. **p < 0.01, ***p < 0.001
(§1) For western blots, cells were lysed with M-PER? Mammalian Protein Extraction Reagent (Pierce, Rockford, IL, USA). Then, western blot analysis was performed according to standard procedures. Chemiluminescent detection was conducted using supersignal substrate (Pierce) according to the manufacturer’s specifications.
Protocol for c-Met signaling pathway: (a) HepG2 cells were treated with HGF (10 ng/ml) alone or HGF (10 ng/ml) and BDNF (10 ng/ml) for the indicated time and the activation of c-Met signaling pathway was examined.
as §1

As for `Cc1ccccc1NS(=O)(=O)c1ccc2c(c1)/C(=C/c1nc3ccccc3[nH]1)C(=O)N2` [Indo5, 3-(1H-benzimidazol-2-methylene)-5-(2-methylphenylaminosulfo)-2-indolone], the IC50 at InsR, on RET, at C-KIT, on IGF1R, at AXL and on EGFR was > 10 µM each time. Moreover, the results for the IC50 (at EGFR(T790,L858R); in [4]; in data set [6]) were > 10 µM, 2.98 to 9.19 µM and 1.11 to 1.87 µM, respectively. Further, the “HGF-induced vasculature formation in vivo” value in data set [1] is listed as “dramatically blocked”. Further, the “HGF-induced c-Met signaling pathway activation” value in the data set on c-Met signaling pathway was “dramatically suppressed”. This compound yielded a survival rate in data set [2] (24 mg/kg Indo5 once daily by oral gavage) of 40%. Moreover, the overall survival rate in data set [2] (48 mg/kg Indo5 once daily by oral gavage) is on record as 77.7%. For the same compound, the “rate of tumor growth inhibition” value in [3] (orthotopic HepG2, 8 mg/kg intraperitoneally once daily for 3 weeks) is given as “approximately 49%”; in [3] (orthotopic HepG2, 16 mg/kg intraperitoneally once daily for 3 weeks) it was 61.2%. For the same compound, the “overall health of the animals” value in data set [3] (orthotopic HepG2 model, Indo5 vs control, data not shown) is on record as “not adversely affected”. Further, the BDNF-induced growth entry with Ba/F3-TrkB cells is reported as “inhibited”. For the same compound, the “effect on cell proliferation” value with wild-type Ba/F3 cells is listed as “no obvious effect”. Besides, the “apoptosis in tumor tissues (TUNEL staining)” value in [5] is “increased apoptosis”. For the same compound, the “BDNF-induced TrkB signaling” value in the data set with TrkB signaling is given as “decreased”.

Source of the values: publication PMC6421704 (Journal of Experimental & Clinical Cancer Research : CR, 2019).
